Values joined by “and” are separate entries in the source; they are usually repeats but may differ in a detail not shown here. Equal values may be shown once. Where a name gives a salt, the structure may show the parent alone. Read-outs that look alike come from different tables or passages of the source.
What was measured:
TBK1 = molecular target: T1, TBK1 (Homo sapiens, UniProt Q9UHD2); assay: MCE (microfluidic capillary electrophoresis) kinase assay, phosphorylation of 5-FAM-TBK1-Tide by TBK1; assay type: biochemical; conditions: for inhibition at 10 µM: read-out: percent inhibition of TBK1
T1 construct: purchased Life Technologies (Invitrogen)
T1 sequence (Q9UHD2 1-729): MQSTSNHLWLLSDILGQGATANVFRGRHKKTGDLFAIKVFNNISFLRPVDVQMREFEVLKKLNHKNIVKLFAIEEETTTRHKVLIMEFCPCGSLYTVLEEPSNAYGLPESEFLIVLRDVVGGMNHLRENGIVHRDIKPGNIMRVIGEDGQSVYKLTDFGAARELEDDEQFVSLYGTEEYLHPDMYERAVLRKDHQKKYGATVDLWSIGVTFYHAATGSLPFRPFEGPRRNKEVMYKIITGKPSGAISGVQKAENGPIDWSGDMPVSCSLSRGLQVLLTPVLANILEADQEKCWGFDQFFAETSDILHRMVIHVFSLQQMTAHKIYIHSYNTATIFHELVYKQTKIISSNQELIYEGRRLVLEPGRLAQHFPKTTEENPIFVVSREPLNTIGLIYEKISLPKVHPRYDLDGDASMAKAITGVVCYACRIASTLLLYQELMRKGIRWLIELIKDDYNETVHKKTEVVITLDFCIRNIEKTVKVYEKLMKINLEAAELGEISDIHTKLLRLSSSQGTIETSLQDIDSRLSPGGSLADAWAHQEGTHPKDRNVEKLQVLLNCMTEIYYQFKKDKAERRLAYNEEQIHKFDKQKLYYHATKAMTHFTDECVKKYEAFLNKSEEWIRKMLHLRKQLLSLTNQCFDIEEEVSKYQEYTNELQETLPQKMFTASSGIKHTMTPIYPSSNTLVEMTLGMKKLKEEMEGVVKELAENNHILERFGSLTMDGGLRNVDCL
Experimental: (§1) MCE operates on the principle that small fluorescently-labeled peptide substrates from ∼100 nanoliter sized aliquots of reaction samples are separable in a capillary channel etched in a quartz microfluidic chip ratio when a current is applied, [30]. […] TBK1-Tide was synthesized with an N-terminal 5– Carboxyfluorescein (5-FAM) dye for use as a substrate. […] The enzyme concentrations were then titrated and fixed to 120 nM for TBK1 and 81 nM for IKKε.
(§2) Compounds were screened at a final concentration of 10 µM in 0.1% DMSO. Two libraries of compounds were tested. […] This library was tested in duplicate to establish the reproducibility of the screen (Figure S2). A second kinase-focused library consisting of 4,727 unique and “rule of five” compliant compounds was also tested (Figures 5A and B). […]

IKKε = molecular target: T2, IKKε (Homo sapiens, UniProt Q14164); assay: MCE kinase assay, phosphorylation of 5-FAM-TBK1-Tide by IKKε; assay type: biochemical; conditions: for inhibition at 10 µM: read-out: percent inhibition of IKKε
T2 construct: purchased Life Technologies (Invitrogen)
T2 sequence (Q14164 1-716): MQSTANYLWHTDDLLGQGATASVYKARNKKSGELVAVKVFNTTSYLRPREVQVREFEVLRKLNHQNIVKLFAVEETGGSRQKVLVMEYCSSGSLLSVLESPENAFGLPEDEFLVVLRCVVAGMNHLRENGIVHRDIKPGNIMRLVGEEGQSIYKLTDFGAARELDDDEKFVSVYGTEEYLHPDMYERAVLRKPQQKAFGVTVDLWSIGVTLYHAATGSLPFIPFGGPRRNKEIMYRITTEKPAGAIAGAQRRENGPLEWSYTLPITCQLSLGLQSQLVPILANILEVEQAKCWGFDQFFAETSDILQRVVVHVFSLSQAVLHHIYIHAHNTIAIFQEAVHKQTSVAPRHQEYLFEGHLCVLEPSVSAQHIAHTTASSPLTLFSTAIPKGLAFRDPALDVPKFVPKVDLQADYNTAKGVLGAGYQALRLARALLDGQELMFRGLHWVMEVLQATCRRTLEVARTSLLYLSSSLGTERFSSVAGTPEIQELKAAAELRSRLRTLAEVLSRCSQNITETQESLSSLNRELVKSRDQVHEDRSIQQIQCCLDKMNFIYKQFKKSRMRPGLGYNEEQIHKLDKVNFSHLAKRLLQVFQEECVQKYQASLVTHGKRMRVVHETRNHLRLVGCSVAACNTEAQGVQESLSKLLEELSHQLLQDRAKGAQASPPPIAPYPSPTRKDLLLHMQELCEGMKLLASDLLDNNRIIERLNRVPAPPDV
Experimental: as §1, §2

IKKα = molecular target: T3, IKKα (Homo sapiens, UniProt O15111); assay: MCE kinase assay, phosphorylation of FL-1 peptide by IKKα (secondary screen); assay type: biochemical; conditions: for inhibition at 10 µM: read-out: percent inhibition of IKKα
T3 construct: purchased Life Technologies (Invitrogen)
T3 sequence (O15111 1-745): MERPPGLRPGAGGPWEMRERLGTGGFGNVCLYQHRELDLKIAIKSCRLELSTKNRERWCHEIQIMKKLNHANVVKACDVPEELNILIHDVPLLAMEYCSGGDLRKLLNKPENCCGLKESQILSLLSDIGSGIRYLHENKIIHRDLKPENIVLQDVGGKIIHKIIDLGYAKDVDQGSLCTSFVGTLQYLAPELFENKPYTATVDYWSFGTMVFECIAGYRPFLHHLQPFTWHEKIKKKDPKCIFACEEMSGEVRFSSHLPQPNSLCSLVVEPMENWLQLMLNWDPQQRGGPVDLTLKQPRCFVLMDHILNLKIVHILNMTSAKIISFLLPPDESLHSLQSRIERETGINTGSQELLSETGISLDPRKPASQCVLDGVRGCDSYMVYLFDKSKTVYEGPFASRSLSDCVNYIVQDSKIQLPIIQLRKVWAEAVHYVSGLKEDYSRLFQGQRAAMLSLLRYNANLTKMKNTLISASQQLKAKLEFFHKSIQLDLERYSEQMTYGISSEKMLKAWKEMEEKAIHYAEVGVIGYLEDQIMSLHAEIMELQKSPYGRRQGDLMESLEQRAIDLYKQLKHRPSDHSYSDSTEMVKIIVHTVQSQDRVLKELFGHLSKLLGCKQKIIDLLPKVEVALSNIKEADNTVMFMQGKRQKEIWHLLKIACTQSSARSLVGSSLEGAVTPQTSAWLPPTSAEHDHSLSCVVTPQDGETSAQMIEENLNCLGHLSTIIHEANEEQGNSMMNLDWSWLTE
Experimental: As IKKβ and IKKα are closely related to TBK1 and IKKε, it was important to determine the specificity of any candidate inhibitors. A secondary screen was therefore performed to evaluate the ability of the top-scoring TBK1 and IKKε inhibitors to inhibit the canonical IKKs. […] Enzyme concentrations were titrated and fixed to 11.5 µM for IKKα and 1.1 µM for IKKβ and the screen was performed as described above for TBK1 and IKKε. […]
Kinase buffer contained 50 mM Tris (pH 7.5), 12 mM MgCl2, 1 mM β-glycerophosphate, 100 µM ATP, and 10 µCi γ-^32P-ATP/reaction. Reactions were incubated at 30°C for 1h. Recombinant GST-TBK1 and GST-TBK1 K38A used in the positional scanning peptide library assay were generated as described above and the assay was performed as described previously, [28]. […]

ERRα = system: ERRα; set-up: method as in LOPAC library description; conditions: transient transfection assays using GAL4-ERR LBD or full-length ERR with the mSHP promoter; ref LOPAC library description; cited from earlier work
IKKβ = IKKβ (Homo sapiens, UniProt O14920); conditions: read-out: ATP Km of IKKβ for TBK1-Tide; room temperature
Experimental: As IKKβ and IKKα are closely related to TBK1 and IKKε, it was important to determine the specificity of any candidate inhibitors. A secondary screen was therefore performed to evaluate the ability of the top-scoring TBK1 and IKKε inhibitors to inhibit the canonical IKKs. […] Enzyme concentrations were titrated and fixed to 11.5 µM for IKKα and 1.1 µM for IKKβ and the screen was performed as described above for TBK1 and IKKε.
5-FAM-labeled TBK1-Tide for library screening was generated in the High-Throughput Peptide Synthesis and Arrays Core Facility at University of North Carolina at Chapel Hill.
Kinase buffer contained 50 mM Tris (pH 7.5), 12 mM MgCl2, 1 mM β-glycerophosphate, 100 µM ATP, and 10 µCi γ-^32P-ATP/reaction. Reactions were incubated at 30°C for 1h. Recombinant GST-TBK1 and GST-TBK1 K38A used in the positional scanning peptide library assay were generated as described above and the assay was performed as described previously, [28]. […] IKKε reactions were incubated for 2 hours at room temperature and TBK1, IKKα, and IKKβ reactions were incubated for 6 hours at room temperature.

[1] = compound at 10 µM, after 2 hours (at completion of the assay), LOPAC set

Sequence of IKKβ (O14920 whole entry): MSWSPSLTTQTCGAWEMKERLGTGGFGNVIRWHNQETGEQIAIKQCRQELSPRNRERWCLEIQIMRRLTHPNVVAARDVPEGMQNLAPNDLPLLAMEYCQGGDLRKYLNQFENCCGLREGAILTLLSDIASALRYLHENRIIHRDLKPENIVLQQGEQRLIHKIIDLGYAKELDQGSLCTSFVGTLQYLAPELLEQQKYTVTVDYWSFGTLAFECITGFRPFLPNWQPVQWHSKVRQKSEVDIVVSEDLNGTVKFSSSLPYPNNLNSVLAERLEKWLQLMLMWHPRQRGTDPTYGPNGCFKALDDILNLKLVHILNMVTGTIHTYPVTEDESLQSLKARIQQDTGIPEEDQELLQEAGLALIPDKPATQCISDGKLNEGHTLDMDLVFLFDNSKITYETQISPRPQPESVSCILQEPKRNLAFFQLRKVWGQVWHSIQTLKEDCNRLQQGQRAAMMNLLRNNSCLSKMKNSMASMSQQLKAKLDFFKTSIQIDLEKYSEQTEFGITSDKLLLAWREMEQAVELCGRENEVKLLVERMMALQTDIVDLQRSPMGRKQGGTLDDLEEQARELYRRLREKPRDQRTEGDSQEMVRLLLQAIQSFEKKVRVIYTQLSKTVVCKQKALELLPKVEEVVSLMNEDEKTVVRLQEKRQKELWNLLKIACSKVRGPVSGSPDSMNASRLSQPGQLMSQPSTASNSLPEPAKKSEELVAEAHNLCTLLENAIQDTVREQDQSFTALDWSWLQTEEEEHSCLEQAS

| Compound | percent inhibition of TBK1 (TBK1; [1]) | percent inhibition of IKKε (IKKε; [1]) | percent inhibition of IKKα (IKKα; [1]) | inhibition at 10 µM (TBK1; [1]) | inhibition at 10 µM (IKKε; [1]) | inhibition at 10 µM (IKKα; [1]) | further results |
| --- | --- | --- | --- | --- | --- | --- | --- |
| CN(C)CCC(c1ccccc1)c1ccccn1.O=C(O)/C=C\C(=O)O (centres unmarked) [UNC10101037, Pheniramine maleate salt] | 80.5% | 20% | -0.5% |  |  |  |  |
| NC(Cc1cc(O)c(O)cc1O)C(=O)O (racemic) [UNC10100691, 6-Hydroxy-DL-DOPA] | 77.5% | 61% | 29% |  |  |  |  |
| CN(C)CCC(c1ccc(Cl)cc1)c1ccccn1.O=C(O)/C=C\C(=O)O (racemic) [UNC10100321, (±)-Chlorpheniramine maleate salt] | 84.5% | 48% | -3% |  |  |  |  |
| CC(=O)NCCc1c[nH]c2ccccc12 [UNC10100161, N-Acetyltryptamine] |  |  |  | 74.5% | 24% | -1.5% |  |
| Brc1ccc([C@H]2CN3CCSC3=N2)cc1.O=C(O)C(=O)O [UNC10100081, (−)-p-Bromolevamisole oxalate] | 70% | 26.5% | -2% |  |  |  |  |
| CC(=O)OCC1=C(C(=O)O)N2C(=O)[C@@H](NC(=O)CSc3ccncc3)[C@H]2SC1 [UNC10100339, Cephapirin sodium salt] |  |  |  | 34% | 60% | -0.5% |  |
| COc1ccc2c(c1)/C(=C/c1cnc[nH]1)C(=O)N2 [UNC10100994, SU9516] |  |  |  | 85.5% | 66% | 21.5% |  |
| COc1cc(/C=C(\C#N)C(=O)Nc2nnc(C(F)(F)F)s2)ccc1OCc1ccc(C(F)(F)F)cc1C(F)(F)F [UNC10101318, XCT790] | 71.5% | 10.5% | 28% |  |  |  | IC50 (ERRα): […] |
| O=C1Nc2ccccc2/C1=C1/Nc2ccccc2/C1=N\O [UNC10100206, Indirubin-3′-oxime] | 58% | 68% | 2.5% |  |  |  |  |
| Nc1c(S(=O)(=O)O)cc(Nc2ccc(Nc3nc(Cl)nc(Nc4cccc(S(=O)(=O)O)c4)n3)c(S(=O)(=O)O)c2)c2c1C(=O)c1ccccc1C2=O [UNC10101110, Reactive Blue 2] |  |  |  |  |  |  | inhibition at 10 µM (TBK1): 74%; inhibition at 10 µM (IKKε): 67%; inhibition at 10 µM (IKKα): 55.5% |
| Nc1ncnc2c1ncn2[C@@H]1O[C@H](COP(=O)(O)OP(=O)(O)OP(=O)(O)O)[C@@H](O)[C@H]1O [ATP] |  |  |  |  |  |  | Km (TBK1; TBK1-Tide fixed at 1 µM, room temperature, read-out: Km for ATP, TBK1): 7.5 µM and 7.54 µM; Km (IKKε; TBK1-Tide fixed at 1 µM, room temperature, read-out: Km for ATP, IKKε): 4.7 µM and 4.67 µM; Km (IKKα; room temperature, read-out: ATP Km of IKKα for FL-1): 134 µM; Km (IKKβ): 2 µM |
| O=c1cc(-c2ccccc2F)[nH]c2cc3c(cc12)OCO3 [UNC10100799, CHM-1 hydrate] | 67.5% | 12.5% | 3% |  |  |  |  |
| Oc1c2ccccc2c2c3c(cccc13)N=N2 [UNC10100533, SP600125] |  |  |  | 76.5% | 53.5% | 10% |  |

From PMC3408500, “Development of a High-Throughput Assay for Identifying Inhibitors of TBK1 and IKKε” (PLoS ONE, 2012)
